# Entries after “also recorded” stand apart in the source; their conditions may differ.
# Tests used:
# [1] = system: neonatal rat cardiac myocytes; experiment: Neonatal cardiac myocyte viability, trypan-blue exclusion assay; type: cell-based
# cardiac myocytes = experiment: Hoechst 33342 staining for pyknotic nuclei in cardiac myocytes; type: cell-based, rat; settings: serum-free media with IGF-1
# Akt [2] = experiment: Akt kinase assay (histone H2B) in cardiac myocyte lysates; type: cell-based, rat; settings: serum-deprived, 50 ng/ml IGF-1, 15 min
# Akt, sequence (P31750 whole entry): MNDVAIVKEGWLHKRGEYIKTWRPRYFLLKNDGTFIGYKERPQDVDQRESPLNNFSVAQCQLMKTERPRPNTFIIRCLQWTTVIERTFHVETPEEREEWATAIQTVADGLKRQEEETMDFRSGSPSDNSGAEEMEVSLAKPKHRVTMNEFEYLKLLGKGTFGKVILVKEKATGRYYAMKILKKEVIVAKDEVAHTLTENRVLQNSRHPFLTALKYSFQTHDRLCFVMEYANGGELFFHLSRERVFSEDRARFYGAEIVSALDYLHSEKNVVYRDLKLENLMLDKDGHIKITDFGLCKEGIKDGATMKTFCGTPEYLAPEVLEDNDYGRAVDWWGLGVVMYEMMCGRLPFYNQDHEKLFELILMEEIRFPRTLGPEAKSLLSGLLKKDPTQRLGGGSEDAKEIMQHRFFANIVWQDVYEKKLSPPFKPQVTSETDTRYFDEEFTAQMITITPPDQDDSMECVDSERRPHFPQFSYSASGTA
# cardiomyocytes = experiment: TUNEL analysis of cultured cardiomyocytes; type: cell-based, rat; settings: increasing concentrations of IGF-1, mock- and Adeno-β-gal-transfected cells, 48 hours
# C2C12 cells [3] = experiment: Flow cytometry (FACS) cell cycle analysis during myogenic differentiation; type: cell-based, murine; settings: percentage of cells; differentiation media, 0.5 mM oligonucleotide, 24 hours; DNA content by FACS
# Akt2 = Akt2 kinase assay (histone H2B) in HUVEC lysates; type: cell-based, human; settings: serum-deprived HUVEC, VEGF 100 ng/ml, 15 min
# HUVECs [4] = experiment: HUVEC plasmid co-transfection cell-death assay (surviving β-galactosidase-positive cells); type: cell-based, human; settings: 25 ng/ml VEGF, serum-free 21 hrs, control plasmid
# HUVECs [5] = experiment: HUVEC cell viability, Trypan-blue exclusion assay; type: cell-based, human; settings: 100 ng/ml VEGF, serum-free DMEM, 21 hours
# p21 = experiment: Western immunoblot of C2C12 lysates, anti-p21; type: cell-based, murine; settings: differentiation media with Lipofectin, 24 hours
# Cdk4 = experiment: Western immunoblot of C2C12 lysates, anti-Cdk4; type: cell-based, murine; settings: differentiation media with Lipofectin, 24 hours
# Akt [6] = type: cell-based, murine
# C2C12 cells [7] = type: cell-based, murine
substance,measurement,setting,value
"IGF-1: Insulin-like growth factor-1, purchased from Gibco BRL",time cardiac myocyte viability was sustained,"[1]; 50 ng/ml IGF-1, serum-depleted",more than 48 hours
same,cardiac myocyte viability / cytoprotection by IGF-1,"[1]; serum-free media, up to 72 hours",dependent on the dose of IGF-1; also recorded: maintained
same,incidence of pyknotic nuclei,cardiac myocytes,suppressed the incidence of pyknotic nuclei
same,Akt activity (phosphorylation of histone H2B),Akt [2],induced the phosphorylation of histone H2B
same,frequency of myocyte apoptosis (TUNEL),cardiomyocytes,reduced the frequency of myocyte apoptosis
"5′-TGG ATC CGA CAT GTC AGA-3′ (TGGATCCGACATGTCAGA; all phosphorothioate, sugars by position and methylation of C not given here) [Control]",Cell cycle phase G0/G1,C2C12 cells [3],67
same,Cell cycle phase G2/M,C2C12 cells [3],8
same,Cell cycle phase S,C2C12 cells [3],25
VEGF,Akt2 kinase activity,Akt2,little or no activation of Akt2
same,increase in number of surviving β-galactosidase positive cells (factor),HUVECs [4],3
same,cell loss induced by serum-deprivation,HUVECs [5],completely reversed cell loss induced by serum-deprivation
5′-TGTCAGGCTGGTCTGCCTCC-3′ (antisense TGTCAGGCTGGTCTGCCTCC; chemistry not given here) [p21-AS],induction of p21,p21,markedly inhibited the induction of p21
same,cdk4 expression,Cdk4,no significant effect on cdk4
same,Cell cycle phase G0/G1,C2C12 cells [3],38
same,Cell cycle phase G2/M,C2C12 cells [3],17
same,Cell cycle phase S,C2C12 cells [3],45
same,Akt expression,Akt [6],statistically significant reduction in Akt expression
same,cell-death versus control cultures,C2C12 cells [7],Markedly enhanced cell-death
